# Reference: US12173313B2, “Assembly of functionally integrated human forebrain spheroids and methods of use thereof” (The Board of Trustees of the Leland Stanford Junior …, priority 2017, dated 2024)
# Assays:
# [1] = system: Wnt processing and secretion; conditions: cell-free assay; read-out: IC50, inhibition of Wnt processing and secretion; cited from earlier work
# Wnt signaling = conditions: TM3 cells; read-out: IC50, inhibition of Wnt signaling; cited from earlier work
# [2] = system: Dlxi1/2b::eGFP+ cells in fused hSS-hCS; experiment: Live imaging of interneuron migration in fused hSS-hCS (control); format: cell-based, human; conditions: 100 nM, before vs after exposure
# Procedure: Live imaging and analysis of Dlxi1/2b::eGFP+ cell migration. The migration of Dlxi1/2b::eGFP+ cells was imaged for 8-12 hrs under environmentally controlled conditions (37° C., 5% CO2) in intact, fused hSS-hCS using a confocal microscope with a motorized stage (Leica SP8). Fused hSS-hCS were transferred to a well of a 96-well plate (glass-bottom plates, Corning) in 200 μl of NM. Spheroids were incubated in the environmentally controlled chamber for 30-60 min prior to imaging. During a given recording session, up to 8 fused hSS-hCS were imaged at a depth of 50-150 μm depth and a rate of 15-20 min/frame. For pharmacological manipulation, cells were imaged for 12 hrs to record a baseline. Then, the media was carefully removed and new media with small molecules (AMD3100 at 100 nM; nimodipine at 5 μM; or roscovitine at 15 μM) was gently added to the well. The field of view was readjusted to capture the previous region of interest and cells in fused hSS-hCS were imaged for an additional 12 hrs. For imaging of Dlxi1/2b::eGFP+ cells, E17-E18 slices were placed on inserts and infected with Dlxi1/2b::eGFP lentivirus after 24 hrs. The slices were imaged 2 days later using a Leica SP8 confocal microscope (see above). For measuring the branch to soma length ratio of human cells on mouse slices, hSSs infected with Dlxi1/2b::eGFP lentivirus were dissociated and placed on top of E13-14 mouse slices, which were placed on cell culture inserts 8-24 hrs before. The hSS-derived Dlxi1/2b::eGFP+ cells were imaged with the Leica SP8 confocal microscope system at least 48 hrs later. The migration of mouse Dlxi1/2b::eGFP+ cells or Cav1.2-electroporated cells and the migration of human fetal Dlxi1/2b::eG FP-infected cells both imaged using the same setting as described for intact, fused hSS-hCS. Slices were kept on the cell culture inserts during imaging. For quantification of migration of Dlxi1/2b::eGFP+ cells after plating on coverslips, intact hSS were plated on Poly-ornithine/laminin (Sigma) coated glass coverslips (15 mm; Werner). Cells were imaged 7-10 days after using a confocal microscope (Leica SP8) as described above. ImageJ and the Chemotaxis & Migration Tool (Ibidi) were used for the post-acquisition analysis of cell mobility. The StackReg plugin in ImageJ was used to correct for minor drifts during imaging. To estimate the length of individual saltations, Dlxi1/2b::eGFP cells displaying a swelling of the soma were identified, and distance (in μm) to the new position of the soma following nucleokinesis was recorded manually. The time necessary for this movement was used to calculate the speed when mobile. […] Path directness was calculated as the E/A ratio. […]
# TNKS2 = biological target: T1, TNKS2 (Homo sapiens, UniProt Q9H2K2); conditions: cited from earlier work
# T1 sequence (Q9H2K2 1-1166): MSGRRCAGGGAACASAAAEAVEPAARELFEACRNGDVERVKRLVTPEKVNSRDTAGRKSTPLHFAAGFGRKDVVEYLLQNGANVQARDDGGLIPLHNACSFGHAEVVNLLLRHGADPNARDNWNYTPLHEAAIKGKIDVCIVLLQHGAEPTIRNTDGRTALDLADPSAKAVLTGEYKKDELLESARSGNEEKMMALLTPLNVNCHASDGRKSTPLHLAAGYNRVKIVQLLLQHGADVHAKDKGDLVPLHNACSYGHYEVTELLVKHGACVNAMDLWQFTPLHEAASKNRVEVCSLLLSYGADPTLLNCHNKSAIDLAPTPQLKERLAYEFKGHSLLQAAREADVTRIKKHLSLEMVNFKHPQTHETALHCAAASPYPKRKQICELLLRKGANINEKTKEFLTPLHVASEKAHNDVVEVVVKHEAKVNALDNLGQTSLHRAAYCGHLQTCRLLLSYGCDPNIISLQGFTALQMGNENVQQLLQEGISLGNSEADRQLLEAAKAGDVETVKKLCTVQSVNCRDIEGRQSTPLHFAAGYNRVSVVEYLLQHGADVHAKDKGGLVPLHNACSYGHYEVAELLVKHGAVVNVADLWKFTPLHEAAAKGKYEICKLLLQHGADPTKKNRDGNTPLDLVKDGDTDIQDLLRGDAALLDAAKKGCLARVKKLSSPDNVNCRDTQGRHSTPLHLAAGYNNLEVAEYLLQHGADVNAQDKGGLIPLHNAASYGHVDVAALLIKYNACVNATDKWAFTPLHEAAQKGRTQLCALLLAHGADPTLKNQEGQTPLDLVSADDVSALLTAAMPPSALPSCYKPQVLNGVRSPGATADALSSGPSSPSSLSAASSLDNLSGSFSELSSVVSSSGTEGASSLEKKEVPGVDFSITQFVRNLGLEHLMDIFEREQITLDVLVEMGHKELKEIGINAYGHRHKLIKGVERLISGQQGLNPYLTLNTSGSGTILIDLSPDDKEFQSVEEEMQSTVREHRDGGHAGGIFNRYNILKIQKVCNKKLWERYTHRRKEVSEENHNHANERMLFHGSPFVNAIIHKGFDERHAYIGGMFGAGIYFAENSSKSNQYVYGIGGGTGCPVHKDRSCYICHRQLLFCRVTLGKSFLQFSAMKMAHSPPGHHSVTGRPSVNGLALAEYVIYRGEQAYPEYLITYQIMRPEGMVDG
# [3] = biological target: Wnt3A-mediated activation of a multimerized TCF-binding site driving luciferase; conditions: HEK293 cells; cited from earlier work
# hSS [4] = experiment: Characterization of hSS differentiation conditions (RT-qPCR, immunostaining); conditions: AlloP with or without RA (hSS-ISA, hSS-ISRA)
# Procedure: For the generation of hSS, the medium was supplemented with additional small molecules during the first 23 days in culture; a schematic showing the recipes is presented in FIG. 8a). […] IWP-2 (5 μM; Selleckchem) from day 4 until day 24, and the SHH pathway agonist SAG (smoothened agonist; 100 nM; Selleckchem) from day 12 to day 24. The hSS-ISA condition also included IWP2 and SAG with the addition of allopregnanolone (AlloP 100 nM; Cayman Chemicals) from day 15 to day 23, while the hSS-ISRA condition included AlloP (100 nM) from day 15-23, and a brief exposure (day 12-15) to retinoic acid (RA 100 nM; Sigma). From day 25 to 42, the NM for both the hCS and hSS conditions, was supplemented with the growth factors BDNF (20 ng/ml; Peprotech) and NT3 (20 ng/ml; Peprotech) with medium changes every other day. From day 43 onwards, hCS and hSS were maintained in unsupplemented NM with medium changes every four to six days.
# Immunohistochemistry. Cryosections were washed with PBS to remove excess OCT and blocked in 10% goat serum (NGS), 0.3% Triton X-100 diluted in PBS for 1 hr at room temperature. […]
# Real time quantitative PCR (qPCR). mRNA was isolated using the RNeasy Mini Kit and RNase-Free DNase set (Qiagen), and template cDNA was prepared by reverse transcription using the SuperScript III First-Strand Synthesis SuperMix for qRT-PCR (Life Technologies). […]
# hSS [5] = experiment: Fluo-4 calcium imaging in intact hSS; conditions: 7 days AlloP 100 nM combined with 3-day retinoic acid 100 nM (hSS-ISRA); ~day 50; P=0.006
# Procedure: The generation of hCS from hiPSC was performed as previously described. […] For the generation of hSS, the medium was supplemented with additional small molecules during the first 23 days in culture; a schematic showing the recipes is presented in FIG. 8a). […] IWP-2 (5 μM; Selleckchem) from day 4 until day 24, and the SHH pathway agonist SAG (smoothened agonist; 100 nM; Selleckchem) from day 12 to day 24. The hSS-ISA condition also included IWP2 and SAG with the addition of allopregnanolone (AlloP 100 nM; Cayman Chemicals) from day 15 to day 23, while the hSS-ISRA condition included AlloP (100 nM) from day 15-23, and a brief exposure (day 12-15) to retinoic acid (RA 100 nM; Sigma). From day 25 to 42, the NM for both the hCS and hSS conditions, was supplemented with the growth factors BDNF (20 ng/ml; Peprotech) and NT3 (20 ng/ml; Peprotech) with medium changes every other day. From day 43 onwards, hCS and hSS were maintained in unsupplemented NM with medium changes every four to six days.
# Fluo-4 calcium imaging in intact hSS. […] Spontaneous calcium activity was recorded for 10 min (one frame every 8-10 s) in one 10 μm z-stack plane. Fluorescence intensity (F) was exported as mean gray values in ImageJ. Signal decay was controlled by subtracting the mean fluorescence of the background (Fb). […]
# hCS neurons = experiment: Patch clamp recording of EPSCs in sliced hCS; format: cell-based, human; conditions: 1 mM, added to superfused ACSF
# Procedure: Electrophysiology. […] Slicing was performed using a Leica VT1200 vibratome. […] Recordings were filtered at 10 kHz. […] Action potentials were analyzed using custom MATLAB (MathWorks) programs.
# Porcn = biological target: T2, Porcn (Homo sapiens, UniProt Q9H237); conditions: read-out: EC50, Porcn inhibition; cited from earlier work
# T2 sequence (Q9H237 1-461): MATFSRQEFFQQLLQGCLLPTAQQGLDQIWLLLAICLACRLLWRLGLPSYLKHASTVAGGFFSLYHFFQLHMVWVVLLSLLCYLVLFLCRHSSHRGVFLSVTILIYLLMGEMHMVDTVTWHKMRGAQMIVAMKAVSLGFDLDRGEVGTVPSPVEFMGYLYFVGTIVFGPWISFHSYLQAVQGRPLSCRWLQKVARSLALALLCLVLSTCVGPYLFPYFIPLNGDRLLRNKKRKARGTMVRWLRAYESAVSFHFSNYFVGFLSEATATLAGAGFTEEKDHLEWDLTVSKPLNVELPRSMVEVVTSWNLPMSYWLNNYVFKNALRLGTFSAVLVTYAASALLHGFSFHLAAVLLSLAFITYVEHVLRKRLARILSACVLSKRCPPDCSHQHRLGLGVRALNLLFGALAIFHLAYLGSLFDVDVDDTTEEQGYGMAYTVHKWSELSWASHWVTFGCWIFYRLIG
# Smo = Smo (Homo sapiens, UniProt Q99835); conditions: read-out: KD, Smo heptahelical domain; cited from earlier work
# [6] = system: Dlxi1/2b::eGFP cells that migrated into hCS; conditions: 10 μM; fused hSS-hCS slices
# Procedure: (§1) Electrophysiology. […] Slicing was performed using a Leica VT1200 vibratome. Immediately after sectioning, slices were moved to a circulation chamber containing ACSF at 32° C.
# (§2) For patch-clamp recording, cells were identified by the presence of a fluorescent reporter using an upright Axoscop II microscope (Zeiss). […] Cl− reversal was calculated to be at −91 mV according to the Nernst equation. […] The Cl− reversal potential was calculated to be 0 mV according to the Nernst equation. IPSCs were blocked by application of the GABAA receptor antagonist gabazine (10 μM, Abcam), which was added to superfused ACSF. EPSCs were blocked by application of the glutamate receptor antagonist kynurenic acid (1 mM, Abcam), which was added to superfused ACSF. Electrical simulation was delivered using a bipolar tungsten electrode (FHS) placed […] away from a recorded neuron. Stimulations were delivered to slices for 0.1 ms at […] and separated by at least 10 s. Inward EPSCs and outward IPSPs were recorded by filling the patch pipette with a low chloride internal solution (ECI−=−90 mV) and holding the cell at −40 mV, which is the midpoint between ECI− and EK+/Na+. […] Recordings were filtered at 10 kHz. Synaptic recordings were analyzed using custom software developed by J. R. H. (Wdetecta).
# neurons in hSS = conditions: 10 μM; 250 μm sections of hSS
# Procedure: as §1, §2
# [7] = system: TS Dlxi1/2b::eGFP+ cells in fused hSS-hCS; experiment: Live imaging of interneuron migration in fused hSS-hCS from Timothy syndrome; format: cell-based, human; conditions: 15 μM, P<0.001
# Procedure: Live imaging and analysis of Dlxi1/2b::eGFP+ cell migration. The migration of Dlxi1/2b::eGFP+ cells was imaged for 8-12 hrs under environmentally controlled conditions (37° C., 5% CO2) in intact, fused hSS-hCS using a confocal microscope with a motorized stage (Leica SP8). Fused hSS-hCS were transferred to a well of a 96-well plate (glass-bottom plates, Corning) in 200 μl of NM. Spheroids were incubated in the environmentally controlled chamber for 30-60 min prior to imaging. During a given recording session, up to 8 fused hSS-hCS were imaged at a depth of 50-150 μm depth and a rate of 15-20 min/frame. For pharmacological manipulation, cells were imaged for 12 hrs to record a baseline. […] The field of view was readjusted to capture the previous region of interest and cells in fused hSS-hCS were imaged for an additional 12 hrs. […] For quantification of migration of Dlxi1/2b::eGFP+ cells after plating on coverslips, intact hSS were plated on Poly-ornithine/laminin (Sigma) coated glass coverslips (15 mm; Werner). […] To estimate the length of individual saltations, Dlxi1/2b::eGFP cells displaying a swelling of the soma were identified, and distance (in μm) to the new position of the soma following nucleokinesis was recorded manually. […] Path directness was calculated as the E/A ratio. […]
# [8] = biological target: element-binding protein (CBP) (Homo sapiens, UniProt Q92793); conditions: cited from earlier work
# Sequence of element-binding protein (CBP) (Q92793 whole entry): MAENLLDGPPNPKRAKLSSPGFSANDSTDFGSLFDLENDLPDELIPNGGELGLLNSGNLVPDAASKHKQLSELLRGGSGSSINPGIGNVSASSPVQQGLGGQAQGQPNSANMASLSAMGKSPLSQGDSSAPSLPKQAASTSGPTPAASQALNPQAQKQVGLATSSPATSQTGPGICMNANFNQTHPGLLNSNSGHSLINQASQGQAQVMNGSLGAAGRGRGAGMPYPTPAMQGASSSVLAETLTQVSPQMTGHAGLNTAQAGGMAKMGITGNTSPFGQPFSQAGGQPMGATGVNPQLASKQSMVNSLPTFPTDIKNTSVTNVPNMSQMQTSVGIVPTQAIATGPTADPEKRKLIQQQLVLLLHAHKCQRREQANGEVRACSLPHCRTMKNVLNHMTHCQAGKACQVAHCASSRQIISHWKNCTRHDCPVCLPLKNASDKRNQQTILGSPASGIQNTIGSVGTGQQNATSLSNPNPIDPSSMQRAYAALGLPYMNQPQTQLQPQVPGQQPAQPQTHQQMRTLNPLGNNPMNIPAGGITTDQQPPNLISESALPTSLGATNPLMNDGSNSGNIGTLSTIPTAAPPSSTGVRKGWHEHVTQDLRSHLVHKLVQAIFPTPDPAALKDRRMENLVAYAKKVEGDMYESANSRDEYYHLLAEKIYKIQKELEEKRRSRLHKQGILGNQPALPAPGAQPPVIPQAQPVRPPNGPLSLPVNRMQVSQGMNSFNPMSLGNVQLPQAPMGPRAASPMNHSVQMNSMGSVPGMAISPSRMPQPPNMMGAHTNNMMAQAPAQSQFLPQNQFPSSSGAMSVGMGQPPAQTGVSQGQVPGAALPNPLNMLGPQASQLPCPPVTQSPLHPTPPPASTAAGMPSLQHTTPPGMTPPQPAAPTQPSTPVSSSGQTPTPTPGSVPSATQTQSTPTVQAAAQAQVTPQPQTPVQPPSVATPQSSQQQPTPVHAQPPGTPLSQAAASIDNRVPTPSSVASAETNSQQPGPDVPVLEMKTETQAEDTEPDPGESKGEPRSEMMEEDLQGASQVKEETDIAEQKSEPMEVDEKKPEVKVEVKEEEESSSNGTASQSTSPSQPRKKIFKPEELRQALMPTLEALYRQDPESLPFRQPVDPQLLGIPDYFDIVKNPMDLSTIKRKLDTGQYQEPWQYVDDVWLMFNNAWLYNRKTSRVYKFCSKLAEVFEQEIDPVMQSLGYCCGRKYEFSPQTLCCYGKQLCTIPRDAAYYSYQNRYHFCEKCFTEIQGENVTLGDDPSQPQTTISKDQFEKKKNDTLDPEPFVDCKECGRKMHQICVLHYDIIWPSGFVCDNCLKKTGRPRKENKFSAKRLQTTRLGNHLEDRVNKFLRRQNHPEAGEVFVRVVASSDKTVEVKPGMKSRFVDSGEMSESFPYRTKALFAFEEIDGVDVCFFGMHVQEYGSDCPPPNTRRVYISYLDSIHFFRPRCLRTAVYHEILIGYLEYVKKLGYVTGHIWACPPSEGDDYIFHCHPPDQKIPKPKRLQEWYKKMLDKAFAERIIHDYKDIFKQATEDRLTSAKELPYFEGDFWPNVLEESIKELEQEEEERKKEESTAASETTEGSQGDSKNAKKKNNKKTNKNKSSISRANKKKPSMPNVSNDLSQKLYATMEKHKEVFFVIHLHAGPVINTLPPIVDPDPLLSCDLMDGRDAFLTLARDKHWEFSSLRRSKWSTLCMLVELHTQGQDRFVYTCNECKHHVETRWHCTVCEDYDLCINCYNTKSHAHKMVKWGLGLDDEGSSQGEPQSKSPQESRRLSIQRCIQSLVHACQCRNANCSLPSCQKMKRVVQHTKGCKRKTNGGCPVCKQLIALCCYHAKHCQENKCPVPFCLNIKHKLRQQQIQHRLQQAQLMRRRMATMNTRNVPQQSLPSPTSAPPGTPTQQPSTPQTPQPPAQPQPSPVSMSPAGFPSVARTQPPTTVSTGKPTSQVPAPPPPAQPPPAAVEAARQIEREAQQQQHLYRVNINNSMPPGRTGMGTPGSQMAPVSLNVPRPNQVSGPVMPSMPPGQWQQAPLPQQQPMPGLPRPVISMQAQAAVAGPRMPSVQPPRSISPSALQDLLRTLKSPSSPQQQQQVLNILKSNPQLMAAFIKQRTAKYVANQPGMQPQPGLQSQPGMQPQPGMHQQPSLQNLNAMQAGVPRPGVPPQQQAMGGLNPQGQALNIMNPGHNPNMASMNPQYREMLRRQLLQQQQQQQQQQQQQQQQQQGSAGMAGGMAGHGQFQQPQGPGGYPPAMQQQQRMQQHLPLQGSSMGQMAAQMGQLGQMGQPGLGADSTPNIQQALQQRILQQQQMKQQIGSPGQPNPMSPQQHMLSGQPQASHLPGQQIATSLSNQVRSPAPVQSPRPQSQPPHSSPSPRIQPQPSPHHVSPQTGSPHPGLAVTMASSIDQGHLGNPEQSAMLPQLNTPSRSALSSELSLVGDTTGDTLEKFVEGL
# Sequence of Smo (Q99835 28-787): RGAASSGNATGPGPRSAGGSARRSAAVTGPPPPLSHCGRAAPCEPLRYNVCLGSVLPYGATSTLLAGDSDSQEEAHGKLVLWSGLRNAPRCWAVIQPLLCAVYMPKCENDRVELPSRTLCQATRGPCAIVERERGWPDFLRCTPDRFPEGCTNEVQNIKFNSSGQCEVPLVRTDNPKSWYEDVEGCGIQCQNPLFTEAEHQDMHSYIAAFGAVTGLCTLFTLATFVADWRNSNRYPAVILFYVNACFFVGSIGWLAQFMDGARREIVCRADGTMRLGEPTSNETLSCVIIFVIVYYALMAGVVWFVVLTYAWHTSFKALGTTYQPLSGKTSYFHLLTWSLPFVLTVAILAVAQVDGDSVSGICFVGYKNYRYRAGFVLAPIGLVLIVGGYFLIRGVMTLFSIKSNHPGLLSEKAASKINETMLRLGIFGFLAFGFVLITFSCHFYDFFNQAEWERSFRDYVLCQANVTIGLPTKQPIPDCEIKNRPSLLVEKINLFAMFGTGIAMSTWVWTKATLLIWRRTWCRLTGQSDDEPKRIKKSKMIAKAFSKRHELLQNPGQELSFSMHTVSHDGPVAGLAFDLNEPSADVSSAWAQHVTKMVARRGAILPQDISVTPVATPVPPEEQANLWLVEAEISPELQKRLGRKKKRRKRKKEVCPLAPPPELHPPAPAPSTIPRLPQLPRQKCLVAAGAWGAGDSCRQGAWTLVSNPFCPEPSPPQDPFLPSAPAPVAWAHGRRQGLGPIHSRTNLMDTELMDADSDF
smiles,measurement,setting,value
Cc1ccc2nc(NC(=O)CSc3nc4c(c(=O)n3-c3ccccc3)SCC4)sc2c1 [IWP-2],IC50,[1],27 nM
Cc1cc(-c2ncc(CC(=O)Nc3ccc(-c4cnccn4)cn3)cc2C)ccn1 [LGK-974],IC50,Wnt signaling,0.4 nM
c1cc(CN2CCCNCCNCCCNCC2)ccc1CN1CCCNCCNCCCNCC1 [AMD3100],saltation length,[2]; P=0.006,significant reduction
same,speed when mobile,[2]; P=0.006,significant reduction
same,path directness,[2]; P=0.02,change
same,frequency of saltations,[2]; P=0.03,significant reduction
COc1ccc(-n2c(SCCCN3C(=O)c4cccc5cccc(c45)C3=O)nnc2-c2ccncc2)cc1 [WIKI4],IC50,TNKS2,15 nM
Cc1cc(-c2ccc(CC(=O)Nc3ccc(-c4cccnc4)cc3)cc2)ccn1 [Wnt-059],IC50,[3],0.074 nM
CC(=O)[C@H]1CC[C@H]2[C@@H]3CC[C@H]4C[C@H](O)CC[C@]4(C)[C@H]3CC[C@]12C [allopregnanolone],"subpallial fate, neurotransmitter identity and GABAergic subtypes in hSS",hSS [4],did not alter
same,frequency of spontaneous calcium spikes,hSS [5],significantly increased
O=C(O)c1cc(=O)c2ccccc2[nH]1 [kynurenic acid],EPSCs,hCS neurons,blocked
O=C(CSc1nc2c(c(=O)n1-c1ccccc1)SCC2)Nc1ccc(-c2ccccc2)cn1 [IWP-L6],EC50,Porcn,0.5 nM
CNC1CCC(N(Cc2cccc(-c3ccncc3)c2)C(=O)c2sc3ccccc3c2Cl)CC1 (centres unmarked) [SAG],Kd,Smo,59 nM
COc1ccc(-c2ccc(=N)n(CCCC(=O)O)n2)cc1 [gabazine],evoked disynaptic IPSCs after electrical stimulation,[6],sensitive
same,spontaneous inhibitory postsynaptic responses (sIPSCs),neurons in hSS,abolished
CC[C@H](CO)Nc1nc(NCc2ccccc2)c2ncn(C(C)C)c2n1 [roscovitine],saltation length,[7],rescuing
O=C1[C@H](Cc2ccc(O)cc2)N2C(=O)CCN(C(=O)NCc3ccccc3)[C@H]2CN1Cc1cccc2ccccc12 [ICG-001],IC50,[8],3000 nM
